# According to patent US8158580B2, “Pharmaceutical compositions containing a glycopeptide antibiotic and a cyclodextrin” (Theravance, Inc., priority 2000, dated 2012):
# Where two headings read alike, the source gives them in different places.
# Settings: female rats; for BUN / Creatinine: 50 mg/kg intravenous infusion, serum at 24 hours; for % Recovered (as unchanged parent) Kidney / % Recovered (as unchanged parent) Liver / % Recovered (as unchanged parent) Urine / Serum Conc.: 2-minute intravenous infusion, 24 hours, Mean (SD)
# Procedure: Female Sprague-Dawley rates (three per group) were dosed with Compound A (50 mg/kg) formulated in either hydroxypropyl-β-cyclodextrin or 5% dextrose/water or vehicle. The indicated doses were administered in a volume of 10 mL/kg via a 2-minute intravenous infusion. At 24 hours, the animals were sacrificed and serum and tissue samples collected.
# [1] = formulation 1% (w/v) CD (hydroxypropyl-β-cyclodextrin)
# [2] = formulation 1% CD (hydroxypropyl-β-cyclodextrin), 50 mg/kg
# [3] = formulation 5% (w/v) CD (hydroxypropyl-β-cyclodextrin)
# [4] = formulation 5% CD (hydroxypropyl-β-cyclodextrin), 50 mg/kg
# [5] = formulation 25% (w/v) CD (hydroxypropyl-β-cyclodextrin)
# [6] = formulation 25% CD (hydroxypropyl-β-cyclodextrin), 50 mg/kg
# [7] = formulation D5W (aqueous 5% dextrose solution, no cyclodextrin)
# [8] = formulation D5W (aqueous 5% dextrose solution, no cyclodextrin), 50 mg/kg
# [9] = formulations containing a cyclodextrin compared with formulation without, 50 mg/kg
smiles,measurement,setting,value
CCCCCCCCCCNCCNC1(C)CC(OC2C(Oc3c4cc5cc3Oc3ccc(cc3Cl)C(O)C3NC(=O)C(NC(=O)C5NC(=O)C(CC(N)=O)NC(=O)C(NC(=O)C(CC(C)C)NC)C(O)c5ccc(c(Cl)c5)O4)c4ccc(O)c(c4)-c4c(cc(O)c(CNCP(=O)(O)O)c4O)C(C(=O)O)NC3=O)OC(CO)C(O)C2O)OC(C)C1O (centres unmarked) [Compound A],BUN,[1],26 ± 5 mg/dL
same,Creatinine,[1],0.34 ± 0.08 mg/dL
same,% Recovered (as unchanged parent) Kidney,[2],5.68 (2.49) %
same,% Recovered (as unchanged parent) Liver,[2],8.47 (0.46) %
same,% Recovered (as unchanged parent) Urine,[2],17.45 (6.92) %
same,Serum Conc.,[2],17.1 (12.1) μg/mL
same,BUN,[3],18 ± 5 mg/dL
same,Creatinine,[3],0.31 ± 0.07 mg/dL
same,% Recovered (as unchanged parent) Kidney,[4],2.08 (0.43) %
same,% Recovered (as unchanged parent) Liver,[4],4.89 (0.81) %
same,% Recovered (as unchanged parent) Urine,[4],40.51 (18.57) %
same,Serum Conc.,[4],1.66 (0.33) μg/mL
same,BUN,[5],13 ± 2 mg/dL
same,Creatinine,[5],0.26 ± 0.02 mg/dL
same,% Recovered (as unchanged parent) Kidney,[6],0.62 (0.12) %
same,% Recovered (as unchanged parent) Liver,[6],1.90 (0.32) %
same,% Recovered (as unchanged parent) Urine,[6],90.91 (8.39) %
same,Serum Conc.,[6],0.86 (0.19) μg/mL
same,BUN,[7],67 ± 2 mg/dL
same,Creatinine,[7],0.72 ± 0.08 mg/dL
same,% Recovered (as unchanged parent) Kidney,[8],17.82 (4.94) %
same,% Recovered (as unchanged parent) Liver,[8],14.19 (3.41) %
same,% Recovered (as unchanged parent) Urine,[8],12.61 (4.60) %
same,Serum Conc.,[8],59.8 (27.1) μg/mL
same,liver and kidney accumulation,[9],significantly lower
same,urinary recovery,[9],significantly higher
